Test results reported in patent US11331327B2, “Antibacterial use of halogenated salicylanilides” (UNION therapeutics A/S, priority 2014, dated 2022).
Converted amounts (≈) assume the structure as drawn. Read-outs that look alike come from different tables or passages of the source.

Tested on: S. aureus clinical isolates and S. aureus ATCC 29213
Experiment: MIC assay according to CLSI criteria, Example 2, S. aureus strains
Assay type: cell-based, Staphylococcus aureus
Conditions: Staphylococcus aureus, read-out: MIC
Experimental: Strains were conserved in Luria Bertani (LB) Broth (S. aureus) or Brain Heart Infusion (BHI) (S. pyogenes) supplemented with glycerol 15% (v/v) at −80° C., and reactivated by isolation on LB (S. aureus) or BHI (S. pyogenes) agar plates. Strains were cultivated in Mueller Hinton (MH) Broth-cation adjusted (S. aureus) or BHI (S. pyogenes). All strains were cultivated aerobically (microaerobically for S. pyogenes strains) at 37° C.
Bacterial cultures were stopped in their exponential growth phase and plates were inoculated with the approximate concentration of 5×10^5 cells per well. Plates were incubated at 37° C. for 18 hours (S. aureus) or 24 hours (S. pyogenes).

For `C/C(=C\C(=O)OCCCCCCCCC(=O)O)C[C@@H]1OC[C@H](C[C@@H]2O[C@H]2[C@@H](C)[C@H](C)O)[C@@H](O)[C@H]1O` [Mupirocin], the MIC (ATCC29213, strain 9-1862936) was 0.25 µg/mL (≈ 0.499 µM), the MIC (ATCC29213, strain 9-2625962) was 0.5 µg/mL (≈ 0.999 µM) and the MIC (ATCC29213, strain 9-2642158) was 0.25 µg/mL (≈ 0.499 µM). The MIC (ATCC29213, strain 9-2955245) was 0.25 µg/mL (≈ 0.499 µM), the MIC (ATCC29213, strain 9-26422166) was 0.25 µg/mL (≈ 0.499 µM) and the MIC (ATCC29213, strain 000040C) was 0.25 µg/mL (≈ 0.499 µM). For the same compound, the MIC (ATCC29213, strain 000041C) was 0.25 µg/mL (≈ 0.499 µM), the MIC (ATCC29213, strain 000274T) was 0.5 µg/mL (≈ 0.999 µM) and the MIC (ATCC29213, strain 114660U) was 0.25 µg/mL (≈ 0.499 µM). For the same compound, the MIC (ATCC29213, strain 115015T) was 0.5 µg/mL (≈ 0.999 µM), the MIC (ATCC29213, strain 115242C) was 0.25 µg/mL (≈ 0.499 µM) and the MIC (ATCC29213, strain 115263C) was 0.25 µg/mL (≈ 0.499 µM). The MIC (ATCC29213, strain 115268C) was 0.5 µg/mL (≈ 0.999 µM), the MIC (ATCC29213, strain 115273C) was 0.25 µg/mL (≈ 0.499 µM) and the MIC (ATCC29213, strain 115295C) was 0.25 µg/mL (≈ 0.499 µM). The MIC (ATCC29213, strain 115303C) was 0.25 µg/mL (≈ 0.499 µM), the MIC (ATCC29213, strain 115370U) was 0.125 µg/mL (≈ 0.25 µM) and the MIC (ATCC29213, strain 115427C) was 0.25 µg/mL (≈ 0.499 µM). For the same compound, the MIC (ATCC29213, strain 115445C) was 0.25 µg/mL (≈ 0.499 µM), the MIC (ATCC29213, strain 115561C) was 0.5 µg/mL (≈ 0.999 µM) and the MIC (ATCC29213, strain 115584D) was 0.5 µg/mL (≈ 0.999 µM). For the same compound, the MIC (ATCC29213, strain 115628T) was 0.25 µg/mL (≈ 0.499 µM), the MIC (ATCC29213, strain 115690C) was 0.125 µg/mL (≈ 0.25 µM) and the MIC (ATCC29213, strain 115691T) was 0.25 µg/mL (≈ 0.499 µM). For the same compound, the MIC (ATCC29213, strain 115740E) was 0.25 µg/mL (≈ 0.499 µM), the MIC (ATCC29213, strain 115810E) was 0.25 µg/mL (≈ 0.499 µM) and the MIC (ATCC29213, strain 115903T) was 0.5 µg/mL (≈ 0.999 µM). For the same compound, the MIC (ATCC29213, strain 116122T) was 0.5 µg/mL (≈ 0.999 µM), the MIC (ATCC29213, strain ATCC 29213) was 0.125 µg/mL (≈ 0.25 µM) and the MIC (ATCC29213, strain E5-1029252) was 0.5 µg/mL (≈ 0.999 µM). The MIC (ATCC29213, strain E5-1029558) was 0.5 µg/mL (≈ 0.999 µM), the MIC (ATCC29213, strain E5-1030440) was 0.25 µg/mL (≈ 0.499 µM) and the MIC (ATCC29213, strain E5-1030469) was 0.25 µg/mL (≈ 0.499 µM). It also gave an MIC (ATCC29213, strain E5-1030472) of 0.5 µg/mL (≈ 0.999 µM), an MIC (ATCC29213, strain E5-1030482) of 0.25 µg/mL (≈ 0.499 µM) and an MIC (ATCC29213, strain E5-1033076 (first line, r202)) of 0.25 µg/mL (≈ 0.499 µM). For the same compound, the MIC (ATCC29213, strain E5-1033076 (second line, r203)) was 0.25 µg/mL (≈ 0.499 µM), the MIC (ATCC29213, strain E5-1033088) was 0.25 µg/mL (≈ 0.499 µM) and the MIC (ATCC29213, strain E5-1033091) was 0.25 µg/mL (≈ 0.499 µM). The MIC (ATCC29213, strain E5-1035277) was 0.5 µg/mL (≈ 0.999 µM), the MIC (ATCC29213, strain E5-1035284) was 0.25 µg/mL (≈ 0.499 µM) and the MIC (ATCC29213, strain E5-1035775) was 0.25 µg/mL (≈ 0.499 µM). For the same compound, the MIC (ATCC29213, strain E5-1035779) was 0.5 µg/mL (≈ 0.999 µM), the MIC (ATCC29213, strain E5-1037958) was 0.5 µg/mL (≈ 0.999 µM) and the MIC (ATCC29213, strain E5-1037971) was 0.25 µg/mL (≈ 0.499 µM). For the same compound, the MIC (ATCC29213, strain E5-1038279) was 0.25 µg/mL (≈ 0.499 µM), the MIC (ATCC29213, strain E5-1038286) was 0.5 µg/mL (≈ 0.999 µM) and the MIC (ATCC29213, strain E5-1038294) was 0.25 µg/mL (≈ 0.499 µM). For the same compound, the MIC (ATCC29213, strain E5-1039684) was 0.25 µg/mL (≈ 0.499 µM), the MIC (ATCC29213, strain E5-1039697) was 0.25 µg/mL (≈ 0.499 µM) and the MIC (ATCC29213, strain E5-1041977) was 0.5 µg/mL (≈ 0.999 µM). It also gave an MIC (ATCC29213, strain E5-1041979) of 0.5 µg/mL (≈ 0.999 µM), an MIC (ATCC29213, strain E5-1041980) of 0.25 µg/mL (≈ 0.499 µM) and an MIC (ATCC29213, strain E5-1041987) of 0.25 µg/mL (≈ 0.499 µM). It also gave an MIC (ATCC29213, strain E5-1043184) of 0.5 µg/mL (≈ 0.999 µM), an MIC (ATCC29213, strain E5-1043668) of 0.25 µg/mL (≈ 0.499 µM) and an MIC (ATCC29213, strain E5-1045179) of 0.25 µg/mL (≈ 0.499 µM). For the same compound, the MIC (ATCC29213, strain E5-1046019) was 0.25 µg/mL (≈ 0.499 µM), the MIC (ATCC29213, strain E5-1046020) was 0.25 µg/mL (≈ 0.499 µM) and the MIC (ATCC29213, strain E5-1046039) was 0.25 µg/mL (≈ 0.499 µM). The MIC (ATCC29213, strain E5-1046070) was 0.5 µg/mL (≈ 0.999 µM), the MIC (ATCC29213, strain E5-1046074) was 0.25 µg/mL (≈ 0.499 µM) and the MIC (ATCC29213, strain E5-1046085) was 0.5 µg/mL (≈ 0.999 µM). The MIC (ATCC29213, strain E5-1046096) was 0.5 µg/mL (≈ 0.999 µM), the MIC (ATCC29213, strain E5-1046296) was 1 µg/mL (≈ 2 µM) and the MIC (ATCC29213, strain E5-1046297) was 0.25 µg/mL (≈ 0.499 µM). For the same compound, the MIC (ATCC29213, strain E5-1046298) was 0.25 µg/mL (≈ 0.499 µM), the MIC (ATCC29213, strain E5-1046723) was 0.25 µg/mL (≈ 0.499 µM) and the MIC (ATCC29213, strain E5-1047585) was 0.25 µg/mL (≈ 0.499 µM). For the same compound, the MIC (ATCC29213, strain E5-1047606) was 0.5 µg/mL (≈ 0.999 µM), the MIC (ATCC29213, strain E5-1047924) was 0.5 µg/mL (≈ 0.999 µM) and the MIC (ATCC29213, strain E5-1048204) was 0.25 µg/mL (≈ 0.499 µM). It also gave an MIC (ATCC29213, strain E5-1048428) of 0.25 µg/mL (≈ 0.499 µM), an MIC (ATCC29213, strain E5-1048654) of 0.25 µg/mL (≈ 0.499 µM) and an MIC (ATCC29213, strain E5-1048670) of 0.5 µg/mL (≈ 0.999 µM). It also gave an MIC (ATCC29213, strain EEFIC 01) of 0.125 µg/mL (≈ 0.25 µM), an MIC (ATCC29213, strain EEFIC 02) of 0.125 µg/mL (≈ 0.25 µM) and an MIC (ATCC29213, strain K000772) of 0.125 µg/mL (≈ 0.25 µM). For the same compound, the MIC (ATCC29213, strain K000796) was 0.5 µg/mL (≈ 0.999 µM), the MIC (ATCC29213, strain K000863) was 0.5 µg/mL (≈ 0.999 µM) and the MIC (ATCC29213, strain K000864) was 0.25 µg/mL (≈ 0.499 µM). The MIC (ATCC29213, strain K000866) was 0.5 µg/mL (≈ 0.999 µM), the MIC (ATCC29213, strain K115498) was 0.5 µg/mL (≈ 0.999 µM) and the MIC (ATCC29213, strain K115688) was 0.25 µg/mL (≈ 0.499 µM). For the same compound, the MIC (ATCC29213, strain K115689) was 0.25 µg/mL (≈ 0.499 µM), the MIC (ATCC29213, strain R000019) was 0.5 µg/mL (≈ 0.999 µM) and the MIC (ATCC29213, strain R000020) was 0.5 µg/mL (≈ 0.999 µM). The MIC (ATCC29213, strain R000024) was 0.5 µg/mL (≈ 0.999 µM), the MIC (ATCC29213, strain U115579) was 0.5 µg/mL (≈ 0.999 µM) and the MIC (ATCC 29213 / MRSA, strain MRSA 01) was 0.25 µg/mL (≈ 0.499 µM). For the same compound, the MIC (ATCC 29213 / MRSA, strain MRSA 02) was 0.25 µg/mL (≈ 0.499 µM), the MIC (ATCC 29213 / MRSA, strain MRSA 03) was 0.25 µg/mL (≈ 0.499 µM) and the MIC (ATCC 29213 / MRSA, strain MRSA 04) was 0.25 µg/mL (≈ 0.499 µM). The MIC (ATCC 29213 / MRSA, strain MRSA 05) was 0.125 µg/mL (≈ 0.25 µM), the MIC (ATCC 29213 / MRSA, strain MRSA 06) was 0.25 µg/mL (≈ 0.499 µM) and the MIC (ATCC 29213 / MRSA, strain MRSA 07) was 0.25 µg/mL (≈ 0.499 µM). The MIC (ATCC 29213 / MRSA, strain MRSA 08) was > 16 µg/mL, the MIC (ATCC 29213 / MRSA, strain MRSA 09) was 0.25 µg/mL (≈ 0.499 µM) and the MIC (ATCC 29213 / MRSA, strain MRSA 10) was 0.25 µg/mL (≈ 0.499 µM). The MIC (ATCC 29213 / MRSA, strain MRSA 11) was 0.5 µg/mL (≈ 0.999 µM), the MIC (ATCC 29213 / MRSA, strain MRSA 12) was 0.125 µg/mL (≈ 0.25 µM) and the MIC (ATCC 29213 / MRSA, strain MRSA 13) was 0.25 µg/mL (≈ 0.499 µM). It also gave an MIC (ATCC 29213 / MRSA, strain MRSA 14) of 0.125 µg/mL (≈ 0.25 µM).
